Assay results: ChEMBL document CHEMBL1201862, “PubChem BioAssay data set” (2004)
Several values for one entry are separate records, joined by “and”; a condition that tells them apart may be missing. Equal entries are not always repeated. Structures can show the parent of a compound that is named as a salt. Activity calls are given as the source filed them.

Columns and labels:
[1] = target: Protein-arginine deiminase type-4 (Homo sapiens, UniProt Q9UM07); experiment: IC50 against protein arginine deiminase 4 – biochemical, fluorescence readout, dose response (AID 492970)
[2] = target: Peroxisome proliferator-activated receptor gamma/Nuclear receptor coactivator 1 (Homo sapiens, UniProt P37231); experiment: (§1) TR-FRET dose response biochemical High Throughput Screening assay for agonists of the steroid receptor coactivator 1 (SRC-1) recruitment by the peroxisome proliferator-activated receptor gamma (PPAR gamma): non-selective agonists. [Related pubchem assays (depositor defined):AID1300, AID1808, AID504735, AID631]; assay type: protein assay
[3] = target: Peroxisome proliferator-activated receptor gamma/Nuclear receptor coactivator 3 (Homo sapiens, UniProt P37231); experiment: as §1, with “3 (SRC-3)” for “1 (SRC-1)”, “assays: 1301 (Confirmation screen.), 1048 (Primary screen.)]” for “assays (depositor defined):AID1300, AID1808, AID504735, AID631]”; assay type: functional
[4] = target: Peroxisome proliferator-activated receptor gamma/Nuclear receptor coactivator 2 (Homo sapiens, UniProt P37231); experiment: TR-FRET dose response biochemical High Throughput Screening assay for agonists of the steroid receptor coactivator 2 (SRC-2) recruitment by the peroxisome proliferator-activated receptor gamma (PPAR gamma): non-selective agonists. [Related pubchem assays: 1297, 1032 ]; assay type: functional
[5] = target: T1, E3 ubiquitin-protein ligase XIAP (Homo sapiens, UniProt P98170); experiment: Counter Screen using XIAP-Bir3 for Chemical Antagonists of Bir1/2 domains of IAP-family anti-apoptotic proteins. [Related pubchem assays (depositor defined):AID1018, AID1449, AID1514, AID1638, AID1749, AID1750, AID488957, AID488963]
T1 sequence (P98170 whole entry): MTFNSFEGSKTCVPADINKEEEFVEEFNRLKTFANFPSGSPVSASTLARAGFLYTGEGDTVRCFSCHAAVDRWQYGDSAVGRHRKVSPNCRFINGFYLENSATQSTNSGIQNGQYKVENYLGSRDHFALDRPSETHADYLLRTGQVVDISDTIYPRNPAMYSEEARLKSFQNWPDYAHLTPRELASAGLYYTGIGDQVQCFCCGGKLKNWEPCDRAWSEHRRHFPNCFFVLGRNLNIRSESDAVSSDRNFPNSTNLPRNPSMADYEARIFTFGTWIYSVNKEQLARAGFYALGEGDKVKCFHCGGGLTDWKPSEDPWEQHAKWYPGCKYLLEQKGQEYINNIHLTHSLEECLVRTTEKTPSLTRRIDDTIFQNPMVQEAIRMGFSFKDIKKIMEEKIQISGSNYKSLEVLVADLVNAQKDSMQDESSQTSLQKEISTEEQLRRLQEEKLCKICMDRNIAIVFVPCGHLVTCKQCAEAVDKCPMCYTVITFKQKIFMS

[6] = target: T1, E3 ubiquitin-protein ligase XIAP; experiment: small molecules displacing peptide from XIAP – biochemical, IAP family, fluorescence polarization (AID 1018); assay type: functional
[7] = target: T2, Kappa-type opioid receptor (Homo sapiens, UniProt P41145); experiment: kappa opioid receptor activation by imaging – image-based, set 3, SAR follow-up (AID 488833); assay type: functional
T2 sequence (P41145 whole entry): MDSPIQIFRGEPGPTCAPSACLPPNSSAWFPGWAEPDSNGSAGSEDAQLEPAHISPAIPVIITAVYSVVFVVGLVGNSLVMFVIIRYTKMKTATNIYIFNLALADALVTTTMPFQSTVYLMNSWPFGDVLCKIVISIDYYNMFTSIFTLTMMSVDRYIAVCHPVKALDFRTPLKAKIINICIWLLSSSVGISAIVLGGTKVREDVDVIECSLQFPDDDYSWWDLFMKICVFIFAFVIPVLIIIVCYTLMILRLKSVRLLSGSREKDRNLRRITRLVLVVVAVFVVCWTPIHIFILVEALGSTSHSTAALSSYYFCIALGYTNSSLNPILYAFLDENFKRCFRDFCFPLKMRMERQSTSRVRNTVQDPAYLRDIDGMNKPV

Mu-type opioid receptor [8] = target: T3, Mu-type opioid receptor (Homo sapiens, UniProt P35372); experiment: SAR Analysis of Agonists of the MOR Receptor using an Image-Based Assay - Set 3. [Related pubchem assays (depositor defined):AID1777, AID1785, AID1786, AID1966, AID2133, AID2136, AID2284, AID2285, AID2352]; assay type: functional
T3 sequence (P35372 whole entry): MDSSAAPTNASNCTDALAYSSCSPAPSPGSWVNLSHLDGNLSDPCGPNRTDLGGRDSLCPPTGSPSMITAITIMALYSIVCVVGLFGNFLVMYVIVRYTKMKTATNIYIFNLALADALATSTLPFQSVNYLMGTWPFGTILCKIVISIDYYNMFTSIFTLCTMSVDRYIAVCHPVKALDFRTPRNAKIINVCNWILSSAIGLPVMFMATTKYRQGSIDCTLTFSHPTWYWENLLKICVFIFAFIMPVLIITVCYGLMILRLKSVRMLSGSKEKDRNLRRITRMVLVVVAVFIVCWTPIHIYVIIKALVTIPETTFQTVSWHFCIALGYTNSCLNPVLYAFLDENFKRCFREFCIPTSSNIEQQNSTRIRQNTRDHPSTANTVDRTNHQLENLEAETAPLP

[9] = target: Delta-type opioid receptor (Homo sapiens, UniProt P41143); experiment: SAR Analysis of Agonists of the DOR Receptor using an Image-Based Assay - Set 3. [Related pubchem assays (depositor defined):AID1777, AID1786]; assay type: functional
Chain of Delta-type opioid receptor (P41143 whole entry): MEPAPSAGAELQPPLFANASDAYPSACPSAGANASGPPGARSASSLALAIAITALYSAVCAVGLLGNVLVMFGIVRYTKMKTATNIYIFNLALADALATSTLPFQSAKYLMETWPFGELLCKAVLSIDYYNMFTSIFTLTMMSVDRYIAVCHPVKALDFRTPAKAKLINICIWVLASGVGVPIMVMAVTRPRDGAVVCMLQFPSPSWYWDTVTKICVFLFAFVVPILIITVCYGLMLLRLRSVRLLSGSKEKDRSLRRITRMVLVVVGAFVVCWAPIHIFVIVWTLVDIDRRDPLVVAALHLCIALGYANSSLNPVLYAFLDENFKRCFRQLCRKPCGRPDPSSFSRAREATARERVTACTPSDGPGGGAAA

[10] = target: T2, Kappa-type opioid receptor; experiment: SAR analysis of small molecule agonists of the kappa opioid receptor via a luminescent beta-arrestin assay - Set 3. [Related pubchem assays (depositor defined):AID1777, AID1785, AID1786, AID1966, AID2133, AID2136, AID2284, AID2500]; assay type: functional
[11] = target: Sphingosine 1-phosphate receptor 1 (Homo sapiens, UniProt P21453); experiment: Fluorescence-based counterscreen assay for S1P4 agonists: Cell-based dose response high throughput screening assay to identify agonists of the Sphingosine 1-Phosphate Receptor 1 (S1P1). [Related pubchem assays (depositor defined):AID1509, AID1523, AID1801, AID463107, AID463118, AID463119, AID463122, AID463123, AID463129, AID463225, AID504400, AID504460]; assay type: functional
Chain of Sphingosine 1-phosphate receptor 1 (P21453 whole entry): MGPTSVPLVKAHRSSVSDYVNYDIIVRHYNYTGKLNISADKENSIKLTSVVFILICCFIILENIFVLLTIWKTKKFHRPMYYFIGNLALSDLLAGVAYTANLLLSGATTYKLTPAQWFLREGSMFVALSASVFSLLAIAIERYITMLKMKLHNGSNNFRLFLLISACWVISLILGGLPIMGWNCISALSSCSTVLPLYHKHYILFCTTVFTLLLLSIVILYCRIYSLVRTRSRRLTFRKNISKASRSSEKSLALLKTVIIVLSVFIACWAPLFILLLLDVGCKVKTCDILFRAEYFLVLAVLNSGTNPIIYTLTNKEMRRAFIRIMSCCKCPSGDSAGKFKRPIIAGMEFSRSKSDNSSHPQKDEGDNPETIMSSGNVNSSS

Large T antigen = Large T antigen (Simian virus 40, UniProt P03070); assay type: functional, Betapolyomavirus macacae;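 note: Confirmatory-stage PubChem screen for compounds that inhibit SV40 T antigen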
Chain of Large T antigen (P03070 whole entry): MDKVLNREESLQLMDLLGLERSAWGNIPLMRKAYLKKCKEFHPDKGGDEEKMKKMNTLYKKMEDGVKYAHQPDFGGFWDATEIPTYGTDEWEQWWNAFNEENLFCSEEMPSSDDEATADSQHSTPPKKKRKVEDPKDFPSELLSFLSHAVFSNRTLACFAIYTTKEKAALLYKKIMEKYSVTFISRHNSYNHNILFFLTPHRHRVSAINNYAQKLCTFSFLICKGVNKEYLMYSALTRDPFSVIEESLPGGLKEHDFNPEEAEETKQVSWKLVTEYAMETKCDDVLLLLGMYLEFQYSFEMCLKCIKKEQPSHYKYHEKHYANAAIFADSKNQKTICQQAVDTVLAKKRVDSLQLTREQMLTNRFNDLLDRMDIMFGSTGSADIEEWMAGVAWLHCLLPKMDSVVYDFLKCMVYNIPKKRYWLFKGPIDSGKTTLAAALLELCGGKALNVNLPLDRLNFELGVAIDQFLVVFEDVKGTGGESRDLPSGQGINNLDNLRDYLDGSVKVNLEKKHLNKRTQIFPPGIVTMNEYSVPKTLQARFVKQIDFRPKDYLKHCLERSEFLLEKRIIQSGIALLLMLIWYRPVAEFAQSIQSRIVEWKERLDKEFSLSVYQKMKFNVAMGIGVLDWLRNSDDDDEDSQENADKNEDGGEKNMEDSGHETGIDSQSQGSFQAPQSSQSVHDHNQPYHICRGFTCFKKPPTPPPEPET

[12] = target: Sphingosine 1-phosphate receptor 4 (Homo sapiens, UniProt O95977); experiment: Fluorescence dose response cell-based high throughput screening assay for agonists of the Sphingosine 1-Phosphate Receptor 4 (S1P4). [Related pubchem assays: 1509 (Primary screen.), 1523 (Confirmation screen in triplicates.)]; assay type: functional
[13] = target: T4, Runt-related transcription factor 1/Core-binding factor subunit beta (Homo sapiens, UniProt Q01196+Q13951); experiment: Confirmation of compounds inhibiting the binding between the RUNX1 Runt domain and CBFb-SMMHC via a fluorescence resonance energy transfer (FRET) assay. [Related pubchem assays (depositor defined):AID1434, AID1438, AID1496, AID1550, AID1645]; assay type: protein assay
T4 sequence (Q01196 whole entry, the tested form may be a part): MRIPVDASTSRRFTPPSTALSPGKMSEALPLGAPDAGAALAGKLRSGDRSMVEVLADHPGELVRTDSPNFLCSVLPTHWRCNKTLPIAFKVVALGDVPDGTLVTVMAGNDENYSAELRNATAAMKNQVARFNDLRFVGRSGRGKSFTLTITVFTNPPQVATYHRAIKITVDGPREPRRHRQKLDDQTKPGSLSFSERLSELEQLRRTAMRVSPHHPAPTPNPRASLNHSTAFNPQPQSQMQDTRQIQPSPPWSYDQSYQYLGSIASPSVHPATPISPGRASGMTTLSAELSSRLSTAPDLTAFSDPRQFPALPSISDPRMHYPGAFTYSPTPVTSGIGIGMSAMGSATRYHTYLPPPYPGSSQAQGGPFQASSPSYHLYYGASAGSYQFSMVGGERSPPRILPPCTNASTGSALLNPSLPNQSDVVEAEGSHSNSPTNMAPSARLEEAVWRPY
T4 sequence (Q13951 whole entry, the tested form may be a part): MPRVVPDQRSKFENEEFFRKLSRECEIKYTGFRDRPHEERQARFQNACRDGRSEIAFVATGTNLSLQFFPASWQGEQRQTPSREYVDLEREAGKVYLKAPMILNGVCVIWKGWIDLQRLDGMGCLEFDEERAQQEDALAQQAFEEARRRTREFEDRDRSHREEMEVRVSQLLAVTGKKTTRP

[14] = target: T5, RNA-binding protein pos-1 (Caenorhabditis elegans, UniProt G5EF15); experiment: disruptors of C. elegans POS-1 RNA interaction – biochemical, fluorescence polarization, dose response (AID 1964);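 note: purified POS-1 fused to maltose binding protein made in E. coli; potency of compounds blocking POS-1 binding to fluorescent RNA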
T5 sequence (G5EF15 whole entry): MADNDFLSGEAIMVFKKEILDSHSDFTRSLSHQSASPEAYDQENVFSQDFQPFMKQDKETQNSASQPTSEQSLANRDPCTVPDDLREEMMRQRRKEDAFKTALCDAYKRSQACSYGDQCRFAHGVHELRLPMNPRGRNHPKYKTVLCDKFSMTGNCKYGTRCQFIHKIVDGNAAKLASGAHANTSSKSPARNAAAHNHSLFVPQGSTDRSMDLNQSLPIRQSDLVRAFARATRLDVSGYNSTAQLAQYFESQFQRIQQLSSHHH

[15] = target: T4, Runt-related transcription factor 1/Core-binding factor subunit beta; experiment: disruptors of Runt domain/CBFb-SMMHC interaction – biochemical, FRET, Cerulean-Runt, Venus-CBFb-SMMHC, uHTS, […] (AID 1434); assay type: protein assay
[16] = target: T6, Zinc finger protein mex-5 (Caenorhabditis elegans, UniProt Q9XUB2); experiment: potency of MEX-5 RNA-binding blockers – biochemical, C. elegans, fluorescence polarization, dose response (AID 1960)
T6 sequence (Q9XUB2 whole entry): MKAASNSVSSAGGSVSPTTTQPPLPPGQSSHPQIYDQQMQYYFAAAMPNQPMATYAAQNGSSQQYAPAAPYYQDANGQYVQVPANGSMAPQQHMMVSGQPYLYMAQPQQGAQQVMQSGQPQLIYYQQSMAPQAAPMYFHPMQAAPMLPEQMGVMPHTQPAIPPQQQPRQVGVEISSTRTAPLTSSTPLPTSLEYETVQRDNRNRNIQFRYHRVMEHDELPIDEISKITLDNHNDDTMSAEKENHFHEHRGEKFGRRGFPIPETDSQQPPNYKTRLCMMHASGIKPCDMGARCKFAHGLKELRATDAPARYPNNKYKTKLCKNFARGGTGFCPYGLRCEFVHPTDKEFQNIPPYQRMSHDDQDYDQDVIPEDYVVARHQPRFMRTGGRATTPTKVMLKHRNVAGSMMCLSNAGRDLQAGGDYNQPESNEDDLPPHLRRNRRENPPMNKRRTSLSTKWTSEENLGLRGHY

[17] = target: T4, Runt-related transcription factor 1/Core-binding factor subunit beta; experiment: Runt domain/CBFb-SMMHC interaction disruptors – biochemical, TR-FRET (AID 1438); assay type: protein assay
[18] = target: T4, Runt-related transcription factor 1/Core-binding factor subunit beta; experiment: Confirmation of compounds inhibiting the binding between the RUNX1 Runt domain and CBFb-SMMHC via a time resolved fluorescence resonance energy transfer (TR-FRET) assay. [Related pubchem assays (depositor defined):AID1434, AID1438, AID1496, AID1560, AID1645]; assay type: protein assay
[19] = target: Induced myeloid leukemia cell differentiation protein Mcl-1 (Homo sapiens, UniProt Q07820); assay type: functional
Chain of Induced myeloid leukemia cell differentiation protein Mcl-1 (Q07820 whole entry): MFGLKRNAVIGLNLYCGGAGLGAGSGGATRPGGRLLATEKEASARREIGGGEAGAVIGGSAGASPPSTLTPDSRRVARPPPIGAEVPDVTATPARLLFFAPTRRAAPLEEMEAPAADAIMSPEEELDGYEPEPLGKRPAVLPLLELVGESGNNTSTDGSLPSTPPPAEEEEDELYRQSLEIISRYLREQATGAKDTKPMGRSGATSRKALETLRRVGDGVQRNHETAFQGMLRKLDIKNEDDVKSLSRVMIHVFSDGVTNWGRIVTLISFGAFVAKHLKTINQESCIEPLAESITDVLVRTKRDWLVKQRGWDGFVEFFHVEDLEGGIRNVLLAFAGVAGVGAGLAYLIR

[20] = target: T7, Mannose-6-phosphate isomerase (Homo sapiens, UniProt P34949); experiment: MPI inhibition at elevated mannose 6-phosphate – biochemical, fluorescence intensity, high mannose 6-phosphate, primary screen (AID 1220)
T7 sequence (P34949 whole entry): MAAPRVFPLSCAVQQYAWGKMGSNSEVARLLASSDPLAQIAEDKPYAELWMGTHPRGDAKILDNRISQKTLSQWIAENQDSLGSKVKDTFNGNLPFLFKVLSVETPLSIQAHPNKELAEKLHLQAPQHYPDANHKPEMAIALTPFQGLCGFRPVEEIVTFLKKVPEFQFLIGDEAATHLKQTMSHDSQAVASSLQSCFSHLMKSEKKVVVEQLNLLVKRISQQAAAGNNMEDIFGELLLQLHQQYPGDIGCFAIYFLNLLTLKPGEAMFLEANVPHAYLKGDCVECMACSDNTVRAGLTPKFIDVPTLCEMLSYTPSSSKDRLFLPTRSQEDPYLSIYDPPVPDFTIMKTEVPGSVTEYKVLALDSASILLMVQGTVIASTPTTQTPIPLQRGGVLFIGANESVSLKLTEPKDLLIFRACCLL

[21] = target: Glucose-6-phosphate 1-dehydrogenase (Homo sapiens, UniProt P11413); experiment: inhibition of Homo sapiens G6PD, dose series – biochemical, fluorescence, selectivity assay for P. falciparum G6PD inhibitor project, dose response (AID 504792); assay type: functional
Chain of Glucose-6-phosphate 1-dehydrogenase (P11413 whole entry): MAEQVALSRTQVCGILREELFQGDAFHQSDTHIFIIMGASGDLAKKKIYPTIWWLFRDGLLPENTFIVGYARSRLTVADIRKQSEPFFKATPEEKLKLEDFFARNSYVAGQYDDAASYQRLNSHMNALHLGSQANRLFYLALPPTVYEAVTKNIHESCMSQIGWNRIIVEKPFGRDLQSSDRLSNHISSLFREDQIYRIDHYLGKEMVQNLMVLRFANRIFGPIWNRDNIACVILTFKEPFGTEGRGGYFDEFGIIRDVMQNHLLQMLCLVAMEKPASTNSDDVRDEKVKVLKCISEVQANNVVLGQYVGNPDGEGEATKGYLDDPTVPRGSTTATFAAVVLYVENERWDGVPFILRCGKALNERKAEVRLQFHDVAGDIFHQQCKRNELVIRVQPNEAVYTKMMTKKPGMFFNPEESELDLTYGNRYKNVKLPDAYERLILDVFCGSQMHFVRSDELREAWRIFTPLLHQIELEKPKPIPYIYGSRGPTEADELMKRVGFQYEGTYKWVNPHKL

[22] = target: Eukaryotic translation initiation factor 4E (Mus musculus, UniProt P63073); experiment: blockers of eIF4G binding by eIF4E – biochemical, TR-FRET, dose response (AID 855); assay type: functional;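 note: potency for disrupting eIF4E binding to eIF4GI seen as loss of FRET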
[23] = target: DNA dC->dU-editing enzyme APOBEC-3G (Homo sapiens, UniProt Q9HC16); experiment: Dose Response confirmation of small molecule APOBEC3G DNA Deaminase Inhibitors via a fluorescence-based single-stranded DNA deaminase assay. [Related pubchem assays (depositor defined):AID493012, AID493028]; assay type: functional
Mu-type opioid receptor [24] = target: T3, Mu-type opioid receptor; assay type: functional, cell-based
[25] = target: 5-hydroxytryptamine receptor 2A (Mus musculus, UniProt P35363); assay type: functional, cell-based;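 note: CHO-K1 cells with tagged receptor and beta-arrestin; agonist potency measured as compound-induced activation of the receptor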
Chain of 5-hydroxytryptamine receptor 2A (P35363 whole entry): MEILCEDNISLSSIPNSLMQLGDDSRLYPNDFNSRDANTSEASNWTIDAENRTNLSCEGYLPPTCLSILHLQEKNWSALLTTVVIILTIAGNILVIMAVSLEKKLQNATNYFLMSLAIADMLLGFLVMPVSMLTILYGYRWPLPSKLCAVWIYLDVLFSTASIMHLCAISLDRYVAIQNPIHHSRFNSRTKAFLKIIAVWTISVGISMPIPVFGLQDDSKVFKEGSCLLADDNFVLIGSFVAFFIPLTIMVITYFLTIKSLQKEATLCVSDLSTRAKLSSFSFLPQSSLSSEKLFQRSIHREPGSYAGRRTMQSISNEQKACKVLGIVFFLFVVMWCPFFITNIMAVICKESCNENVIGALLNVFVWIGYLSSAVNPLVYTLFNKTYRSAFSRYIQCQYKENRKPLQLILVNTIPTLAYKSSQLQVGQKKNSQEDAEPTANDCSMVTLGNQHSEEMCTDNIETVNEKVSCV

[26] = target: T8, DNA repair protein RAD52 homolog (Homo sapiens, UniProt P43351); assay type: functional, biochemical
T8 sequence (P43351 whole entry): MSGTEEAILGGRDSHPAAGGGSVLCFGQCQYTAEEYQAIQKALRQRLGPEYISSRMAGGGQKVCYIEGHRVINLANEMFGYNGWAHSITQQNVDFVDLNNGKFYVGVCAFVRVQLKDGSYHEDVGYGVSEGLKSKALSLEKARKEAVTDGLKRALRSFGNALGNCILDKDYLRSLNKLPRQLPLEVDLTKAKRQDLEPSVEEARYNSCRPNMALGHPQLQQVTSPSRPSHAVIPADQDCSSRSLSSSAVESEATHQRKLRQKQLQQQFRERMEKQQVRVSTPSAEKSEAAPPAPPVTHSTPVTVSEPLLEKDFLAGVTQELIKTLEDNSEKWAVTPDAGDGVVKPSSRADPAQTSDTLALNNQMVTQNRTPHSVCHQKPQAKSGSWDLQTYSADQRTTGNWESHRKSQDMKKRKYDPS

[27] = viability loss in THP-1 monocytes – THP-1 cells, cytotoxicity control for Vif-APOBEC3G degradation inhibitor project, dose response (AID 1117359); assay type: functional; conditions: THP-1
[28] = target: Glutathione-S-transferase (Schistosoma japonicum, UniProt Q26513); experiment: GST-antibody interaction or FRET quenching – biochemical, TR-FRET, artefact control for Vif-APOBEC3G degradation inhibitor project, dose response (AID 1117362); assay type: functional
Chain of Glutathione-S-transferase (Q26513 whole entry): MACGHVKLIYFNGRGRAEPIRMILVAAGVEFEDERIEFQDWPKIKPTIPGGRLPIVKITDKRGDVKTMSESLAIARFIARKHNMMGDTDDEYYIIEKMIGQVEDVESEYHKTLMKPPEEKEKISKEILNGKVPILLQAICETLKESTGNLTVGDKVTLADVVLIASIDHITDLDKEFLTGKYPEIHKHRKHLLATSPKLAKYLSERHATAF

SMILES: O=C1NCC2=C1C(c1ccccc1)Nc1ccccc1N2 (stereo not given)
- IC50 [1]: > 100 µM (inactive)

SMILES: CCOc1ccc(CCNC(=O)CSc2cc(=O)n(CC)c3ccccc23)cc1OCC
- EC50 [2]: > 79.4 µM (inactive)
- EC50 [3]: > 79.4 µM (not active)
- EC50 [4]: 121 µM (not active)

SMILES: COc1ccc(NC(=O)Cc2ccc(C)cc2)c([N+](=O)[O-])c1
- IC50 [5]: > 100 µM (inactive)
- IC50 [6]: > 100 µM (not active)

SMILES: Fc1cccc(F)c1CSc1nnc(-c2ccccn2)n1Cc1ccco1
- EC50 [7]: > 32 µM (inactive)
- EC50 (Mu-type opioid receptor [8]): > 32 µM (inactive)
- EC50 [9]: > 64 µM (inactive)
- EC50 [10]: > 20 µM (inactive)

SMILES: C/C(=N/NC(N)=S)c1cc2ccc(O)cc2oc1=O
- EC50 [11]: 93.5 µM (inactive)
- IC50 (Large T antigen): 27.7 µM (active)
- EC50 [12]: 11.8 µM (not active)

SMILES: CN1CCc2cccc3c2[C@H]1Cc1ccc(O)c(O)c1-3 [APOMORPHINE HYDROCHLORIDE]
- IC50 [13]: 13.4 µM (active)
- EC50 [14]: 16.9 µM (inconclusive)
- IC50 [15]: 9.66 µM (active)
- EC50 [16]: 4.42 µM (active)
- IC50 (Large T antigen): > 100 µM (active) and 15.3 µM (active)
- IC50 [17]: 9.81 µM (active)
- IC50 [18]: 18.9 µM (active)
- IC50 [19]: 4.38 µM (active)
- IC50 [20]: 14.6 µM (active)
- IC50 [21]: 34.6 µM (inactive)
- IC50 [22]: > 64 µM (inactive)
- IC50 [23]: 26.2 µM (active)
- EC50 (Mu-type opioid receptor [24]): 92.5 µM (inactive) and 92.4 µM (inactive)
- EC50 [25]: 6.41 nM (active) and 8.15 nM (active)
- AC50 [26]: 7.1 µM (active)
- CC50 [27]: 16.9 µM (active)
- IC50 [28]: 74.8 µM (active)
